Test results from ChEMBL document CHEMBL1949604, “Drug-like properties: guiding principles for the design of natural product libraries” (J Nat Prod, 2012).

Columns and labels:
[1] = system: Trypanosoma brucei brucei; test: Antitrypanosomal activity against Trypanosoma brucei brucei; format: functional, organism-based
[2] = system: Trypanosoma brucei brucei; test: Antitrypanosomal activity against Trypanosoma brucei brucei at 80 uM; format: functional

IC50 [1] | Structure (SMILES) | inhibition at 80 µM [2]
32 nM | O=C1c2cccnc2-c2nccc3c2c1nc1ccccc13 [ASCIDIDEMIN] | 
1330 nM | c1ccc2c(c1)nc1c3nc4ccccc4c4ccnc(c5nccc2c51)c43 [EILATIN] | 
 | COC1=C(Br)[C@H](O)[C@@]2(C=C1Br)CC(C(=O)NCCCn1cnc(CCNC(=O)C3=NO[C@]4(C=C(Br)C(OC)=C(Br)[C@@H]4O)C3)c1)=NO2 [PSEUDOCERATINAZOLE A] | 80%
77 nM | c1ccc2c(c1)Nc1cc3cccnc3c3nccc-2c13 | 
